Results as given in US11214565B2, “Compound, compositions, and methods” (Denali Therapeutics Inc., priority 2015, dated 2022).

Target: LRRK2 G2019S enzyme (Homo sapiens (Human), UniProt Q5S007, G2019S)
Test: LRRK2 G2019S TR-FRET biochemical kinase assay (LRRKtide substrate)
Details: 5 nM LRRK2, 134 μM ATP, 60 minute reaction, 23° C.
Experimental: LRRK2 G2019S enzyme, Substrate (LRRKtide), ATP, TR-FRET dilution buffer, pLRRKtide antibody, 384-well assay plate, and DMSO.
50 mM Tris pH 7.5, 10 mM MgCl2, 1 mM EGTA, 0.01% Brij-35, 2 mM DTT, 5 nM LRRK2, 134 μM ATP, 60 minute reaction time, 23° C. reaction temperature, and 10 μL total reaction volume.
1×TR-FRET dilution buffer, 10 mM EDTA, 2 nM antibody, 23° C. reaction temperature, and 10 μL total reaction volume.
Compound solutions were prepared by initially diluting to 1 mM with DMSO. 35 μL of reference compound solution, 35 μL of test compound solution, and 35 μL HPE were successively added to the source plate (384-well assay plate, Labcyte). The plates were centrifuged at 2500 rpm for 1 minute and sealed in foil. POD was used to perform a 3.162 fold serial dilution and 100 nL of reference compound solution, test compound solution, HPE and ZPE were transferred to assay plates. The assay plate was centrifuged at 2500 rpm for 1 minute, and sealed with foil.
To perform the enzyme reaction, 5 μL of LRRKtide substrate and kinase mixture in assay buffer was added to all wells of the assay plate. The plate was centrifuged to concentrate the mixture at the bottom of the wells. The assay plate was incubated at 23° C. for 20 minutes. Following incubation, 5 μL of 2×ATP in assay buffer was added to each well, and plates were centrifuged to concentrate the mixture at the bottom of the wells. The plate was incubated at 23° C. for 60 minutes.
To perform the detection of the reaction, EDTA completely mixed in TR-FRET dilution buffer was added to antibody reagent. 10 μL of detection reagent was added to all wells of each well of the assay-plate and the plate was centrifuged to concentrate the mixture at the bottom of the wells. The plate was then incubated at 23° C. for 60 minutes. Plates were read on Perkin Elmer Envision 2104 instrument in TR-FRET mode using a 340 nm excitation filter, 520 nm fluorescence emission filter, and 490 or 495 nm terbium emission filter.
B-2, C2, and D-4 respectively.

Sequence of LRRK2 G2019S enzyme (Q5S007 whole entry G2019S): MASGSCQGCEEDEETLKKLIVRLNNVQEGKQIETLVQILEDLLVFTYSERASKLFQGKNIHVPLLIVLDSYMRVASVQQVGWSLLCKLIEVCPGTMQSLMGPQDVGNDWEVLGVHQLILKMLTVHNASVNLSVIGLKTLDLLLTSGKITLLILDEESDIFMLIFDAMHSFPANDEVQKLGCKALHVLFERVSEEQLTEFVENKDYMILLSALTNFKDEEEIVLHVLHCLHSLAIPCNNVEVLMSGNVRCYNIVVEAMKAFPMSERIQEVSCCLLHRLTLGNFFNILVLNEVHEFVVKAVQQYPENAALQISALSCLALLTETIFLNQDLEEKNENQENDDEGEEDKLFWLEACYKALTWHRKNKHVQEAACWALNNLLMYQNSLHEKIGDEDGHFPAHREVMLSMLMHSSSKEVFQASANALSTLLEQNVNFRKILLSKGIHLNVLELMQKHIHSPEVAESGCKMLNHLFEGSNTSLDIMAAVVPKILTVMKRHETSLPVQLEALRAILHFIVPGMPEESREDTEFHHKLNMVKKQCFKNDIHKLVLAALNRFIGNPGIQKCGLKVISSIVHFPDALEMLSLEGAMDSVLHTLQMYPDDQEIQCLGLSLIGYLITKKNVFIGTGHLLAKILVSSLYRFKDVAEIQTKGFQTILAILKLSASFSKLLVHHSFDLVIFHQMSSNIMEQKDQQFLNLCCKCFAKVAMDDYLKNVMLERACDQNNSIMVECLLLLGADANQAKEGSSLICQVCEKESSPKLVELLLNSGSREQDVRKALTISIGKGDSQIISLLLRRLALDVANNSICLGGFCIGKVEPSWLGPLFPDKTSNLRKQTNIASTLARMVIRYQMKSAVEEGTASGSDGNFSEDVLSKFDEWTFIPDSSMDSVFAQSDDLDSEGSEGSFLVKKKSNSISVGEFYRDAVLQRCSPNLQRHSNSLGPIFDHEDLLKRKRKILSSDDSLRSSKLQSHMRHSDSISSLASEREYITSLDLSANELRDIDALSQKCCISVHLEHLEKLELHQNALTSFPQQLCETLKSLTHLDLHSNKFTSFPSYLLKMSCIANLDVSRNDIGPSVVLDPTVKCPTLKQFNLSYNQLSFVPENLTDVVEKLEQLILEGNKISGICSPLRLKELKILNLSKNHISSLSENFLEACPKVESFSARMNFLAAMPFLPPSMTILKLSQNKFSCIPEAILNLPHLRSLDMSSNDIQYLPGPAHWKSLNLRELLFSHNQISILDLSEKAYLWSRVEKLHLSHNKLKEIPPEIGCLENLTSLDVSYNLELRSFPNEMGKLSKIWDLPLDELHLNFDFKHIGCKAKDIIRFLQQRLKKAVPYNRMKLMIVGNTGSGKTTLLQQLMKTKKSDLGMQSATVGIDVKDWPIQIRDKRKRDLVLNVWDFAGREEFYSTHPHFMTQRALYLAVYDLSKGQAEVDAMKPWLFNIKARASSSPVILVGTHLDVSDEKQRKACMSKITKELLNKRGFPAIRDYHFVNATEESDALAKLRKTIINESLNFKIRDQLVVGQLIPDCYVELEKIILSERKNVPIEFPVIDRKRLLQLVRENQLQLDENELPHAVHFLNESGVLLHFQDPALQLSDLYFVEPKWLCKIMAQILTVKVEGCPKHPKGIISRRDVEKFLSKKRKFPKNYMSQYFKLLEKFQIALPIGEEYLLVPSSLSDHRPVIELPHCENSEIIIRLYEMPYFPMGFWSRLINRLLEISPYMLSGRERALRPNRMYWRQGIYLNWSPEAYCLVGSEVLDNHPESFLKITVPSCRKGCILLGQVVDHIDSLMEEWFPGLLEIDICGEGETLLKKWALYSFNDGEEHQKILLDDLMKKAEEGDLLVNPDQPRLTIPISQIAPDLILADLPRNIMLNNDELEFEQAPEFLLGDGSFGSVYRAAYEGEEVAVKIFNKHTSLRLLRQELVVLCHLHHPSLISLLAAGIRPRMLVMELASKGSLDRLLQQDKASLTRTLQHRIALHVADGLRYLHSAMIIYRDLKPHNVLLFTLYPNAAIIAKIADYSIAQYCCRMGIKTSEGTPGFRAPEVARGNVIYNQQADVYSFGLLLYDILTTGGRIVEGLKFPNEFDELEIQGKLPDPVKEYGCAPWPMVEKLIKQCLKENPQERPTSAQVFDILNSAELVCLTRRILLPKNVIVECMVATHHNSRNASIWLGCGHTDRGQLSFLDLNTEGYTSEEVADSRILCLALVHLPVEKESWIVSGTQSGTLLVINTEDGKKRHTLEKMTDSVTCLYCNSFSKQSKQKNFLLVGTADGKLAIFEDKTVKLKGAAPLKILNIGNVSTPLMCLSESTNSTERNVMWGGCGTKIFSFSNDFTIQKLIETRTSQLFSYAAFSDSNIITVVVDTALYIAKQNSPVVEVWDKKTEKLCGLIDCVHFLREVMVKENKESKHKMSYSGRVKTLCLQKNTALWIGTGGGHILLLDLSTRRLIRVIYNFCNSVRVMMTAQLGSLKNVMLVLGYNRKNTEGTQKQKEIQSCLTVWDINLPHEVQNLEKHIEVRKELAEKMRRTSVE

Row | SMILES | IC50 (Table A-2) | IC50 (Table B-2)
1 | FCC(CF)n1ncc(Nc2ncc(C(F)(F)F)c(C3CC3)n2)c1Cl [Compound A-45, N-[5-chloro-1-[2-fluoro-1-(fluoromethyl)ethyl]pyrazol-4-yl]-4-cyclopropyl-5-(trifluoromethyl)pyrimidin-2-amine] | < 30 nM | 
2 | FCC(CF)n1cc(Nc2ncc(C(F)(F)F)c(C3CC3)n2)c(Cl)n1 [Compound A-46, N-[3-chloro-1-[2-fluoro-1-(fluoromethyl)ethyl]pyrazol-4-yl]-4-cyclopropyl-5-(trifluoromethyl)pyrimidin-2-amine] | < 30 nM | 
3 | Cc1nn(C2(C#N)CC2)cc1Nc1ncc(C(F)(F)F)c(C2CC2)n1 [Compound A-47, 1-[4-[[4-cyclopropyl-5-(trifluoromethyl)pyrimidin-2-yl]amino]-3-methyl-pyrazol-1-yl]cyclopropanecarbonitrile] | < 30 nM | 
4 | F[C@H]1CN(C2COC2)CC[C@@H]1n1ncc(Nc2ncc(C(F)(F)F)c(C3CC3)n2)c1Cl [Compound A-48, N-(5-chloro-1-((3S,4S)-3-fluoro-1-(oxetan-3-yl)piperidin-4-yl)-1H-pyrazol-4-yl)-4-cyclopropyl-5-(trifluoromethyl)pyrimidin-2-amine] | < 30 nM | 
5 | CCn1cnc(C(C)(C)n2cc(Nc3ncc(C(F)(F)F)c(C4CC4)n3)c(C)n2)n1 [Compound A-51, 4-cyclopropyl-N-(1-(2-(1-ethyl-1H-1,2,4-triazol-3-yl)propan-2-yl)-3-methyl-1H-pyrazol-4-yl)-5-(trifluoromethyl)pyrimidin-2-amine] | < 30 nM | 
6 | Cc1nn(C2(c3ncn(C)n3)CC2)cc1Nc1ncc(C(F)(F)F)c(C2CC2)n1 [Compound A-52, 4-cyclopropyl-N-[3-methyl-1-[1-(1-methyl-1,2,4-triazol-3-yl)cyclopropyl]pyrazol-4-yl]-5-(trifluoromethyl)pyrimidin-2-amine] | > 60 nM | 
7 | Cc1nn(C(C)(C)c2ncn(C)n2)cc1Nc1ncc(Br)c(C2CC2)n1 [Compound A-53, 5-bromo-4-cyclopropyl-N-(3-methyl-1-(2-(1-methyl-1H-1,2,4-triazol-3-yl)propan-2-yl)-1H-pyrazol-4-yl)pyrimidin-2-amine] | < 30 nM | 
8 | Cc1c(Nc2ncc(C(F)(F)F)c(C3CC3)n2)cnn1Cc1ccn(C)n1 [Compound A-54, 4-cyclopropyl-N-[5-methyl-1-[(1-methylpyrazol-3-yl)methyl]pyrazol-4-yl]-5-(trifluoromethyl)pyrimidin-2-amine] | < 30 nM | 
9 | Cc1nn(Cc2ccn(C)n2)cc1Nc1ncc(C(F)(F)F)c(C2CC2)n1 [Compound A-55, 4-cyclopropyl-N-(3-methyl-1-((1-methyl-1H-pyrazol-3-yl)methyl)-1H-pyrazol-4-yl)-5-(trifluoromethyl)pyrimidin-2-amine] | < 30 nM | 
10 | Cc1nn(C(C)(C)c2cn(C)cn2)cc1Nc1ncc(C(F)(F)F)c(C2CC2)n1 [Compound A-56, 4-cyclopropyl-N-(3-methyl-1-(2-(1-methyl-1H-imidazol-4-yl)propan-2-yl)-1H-pyrazol-4-yl)-5-(trifluoromethyl)pyrimidin-2-amine] | < 30 nM | 
11 | CC(C)(O)Cn1ncc(Nc2ncc(C(F)(F)F)c(C3CC3)n2)c1Cl [Compound A-57, 1-[5-chloro-4-[[4-cyclopropyl-5-(trifluoromethyl)pyrimidin-2-yl]amino]pyrazol-1-yl]-2-methyl-propan-2-ol] | > 60 nM | 
12 | Cc1nn(C(C)(C)c2nc[nH]n2)cc1Nc1ncc(C(F)(F)F)c(C2CC2)n1 [Compound A-58, N-(1-(2-(1H-1,2,4-triazol-3-yl)propan-2-yl)-3-methyl-1H-pyrazol-4-yl)-4-cyclopropyl-5-(trifluoromethyl)pyrimidin-2-amine] | < 30 nM | 
13 | FC(F)(F)c1cnc(Nc2cnn(CC3(CN4CCOCC4)CC3)c2Cl)nc1C1CC1 [Compound A-63, N-[5-chloro-1-[[1-(morpholinomethyl)cyclopropyl]methyl]pyrazol-4-yl]-4-cyclopropyl-5-(trifluoromethyl)pyrimidin-2-amine] | 30 to 60 nM | 
14 | Cn1cnc(C(C)(C)n2cc(Nc3ncc(C(F)(F)F)c(C4CC4)n3)c(CO)n2)n1 [Compound A-66] | > 60 nM | 
15 | Cc1nn(C(C)(C)c2ccn[nH]2)cc1Nc1ncc(C(F)(F)F)c(C2CC2)n1 [Compound A-67, 4-cyclopropyl-N-[3-methyl-1-[1-methyl-1-(1H-pyrazol-5-yl)ethyl]pyrazol-4-yl]-5-(trifluoromethyl)pyrimidin-2-amine] | < 30 nM | 
16 | Cc1c(Nc2ncc(C(F)(F)F)c(C3CC3)n2)cnn1[C@H]1CC2C(C1)[C@H]2c1ncnn1C (stereo partly drawn) [Compound A-68, 4-cyclopropyl-N-(5-methyl-1-((1R,3s,5S,6r)-6-(1-methyl-1H-1,2,4-triazol-5-yl)bicyclo[3.1.0]hexan-3-yl)-1H-pyrazol-4-yl)-5-(trifluoromethyl)pyrimidin-2-amine] | < 30 nM | 
17 | Cc1nn([C@H]2CC3C(C2)[C@H]3c2ncn(C)n2)cc1Nc1ncc(C(F)(F)F)c(C2CC2)n1 (stereo partly drawn) [Compound A-69, 4-cyclopropyl-N-(3-methyl-1-((1R,3r,5S,6r)-6-(1-methyl-1H-1,2,4-triazol-3-yl)bicyclo[3.1.0]hexan-3-yl)-1H-pyrazol-4-yl)-5-(trifluoromethyl)pyrimidin-2-amine] | < 30 nM | 
18 | Cc1nn([C@H]2CC3C(C2)[C@H]3c2ncnn2C)cc1Nc1ncc(C(F)(F)F)c(C2CC2)n1 (stereo partly drawn) [Compound A-70, 4-cyclopropyl-N-(3-methyl-1-((1R,3s,5S,6r)-6-(1-methyl-1H-1,2,4-triazol-5-yl)bicyclo[3.1.0]hexan-3-yl)-1H-pyrazol-4-yl)-5-(trifluoromethyl)pyrimidin-2-amine] | < 30 nM | 
19 | Cc1nn(C(C)(C)c2cn[nH]n2)cc1Nc1ncc(C(F)(F)F)c(C2CC2)n1 [Compound A-71, N-(1-(2-(2H-1,2,3-triazol-4-yl)propan-2-yl)-3-methyl-1H-pyrazol-4-yl)-4-cyclopropyl-5-(trifluoromethyl)pyrimidin-2-amine] | < 30 nM | 
20 | Cc1nnc(C(C)(C)n2cc(Nc3ncc(C(F)(F)F)c(C4CC4)n3)c(C)n2)o1 [Compound A-74, 4-cyclopropyl-N-(3-methyl-1-(2-(5-methyl-1,3,4-oxadiazol-2-yl)propan-2-yl)-1H-pyrazol-4-yl)-5-(trifluoromethyl)pyrimidin-2-amine] | 30 to 60 nM | 
21 | Cc1nn(C(F)(F)c2ncn(C)n2)cc1Nc1ncc(C(F)(F)F)c(C2CC2)n1 [Compound A-75, 4-cyclopropyl-N-[1-[difluoro(1-methyl-1H-1,2,4-triazol-3-yl)methyl]-3-methyl-pyrazol-4-yl]-5-(trifluoromethyl)pyrimidin-2-amine] | < 30 nM | 
22 | Cc1nn(C(F)(F)c2ncnn2C)cc1Nc1ncc(C(F)(F)F)c(C2CC2)n1 [Compound A-76, 4-cyclopropyl-N-[1-[difluoro-(2-methyl-1,2,4-triazol-3-yl)methyl]-3-methyl-pyrazol-4-yl]-5-(trifluoromethyl)pyrimidin-2-amine] | > 60 nM | 
23 | Cc1nn(C(F)(F)c2nc[nH]n2)cc1Nc1ncc(C(F)(F)F)c(C2CC2)n1 [Compound A-77, 4-cyclopropyl-N-(1-(difluoro(1H-1,2,4-triazol-3-yl)methyl)-3-methyl-1H-pyrazol-4-yl)-5-(trifluoromethyl)pyrimidin-2-amine] | < 30 nM | 
24 | Cc1c(Nc2ncc(C(F)(F)F)c(C3CC3)n2)cnn1[C@H]1C[C@H](c2ncnn2C)C1 [Compound A-80, 4-cyclopropyl-N-(5-methyl-1-((1r,3r)-3-(1-methyl-1H-1,2,4-triazol-5-yl)cyclobutyl)-1H-pyrazol-4-yl)-5-(trifluoromethyl)pyrimidin-2-amine] | < 30 nM | 
25 | Cc1nn([C@H]2C[C@H](c3ncnn3C)C2)cc1Nc1ncc(C(F)(F)F)c(C2CC2)n1 [Compound A-81, 4-cyclopropyl-N-(3-methyl-1-((1r,3r)-3-(1-methyl-1H-1,2,4-triazol-5-yl)cyclobutyl)-1H-pyrazol-4-yl)-5-(trifluoromethyl)pyrimidin-2-amine] | < 30 nM | 
26 | Cc1nn(C(F)(F)C(N)=O)cc1Nc1ncc(C(F)(F)F)c(C2CC2)n1 [Compound A-87] | < 30 nM | 
27 | Cc1c(Nc2ncc(C(F)(F)F)c(C3CC3)n2)cnn1C1(C)CCNC1=O (centres unmarked) [Compound A-93] | < 30 nM | 
28 | CNc1nc(Nc2cnn(C)c2C)nc2[nH]cc(Cl)c12 [Compound B-1, 5-chloro-N^2-(1,5-dimethylpyrazol-4-yl)-N4-methyl-7H-pyrrolo[2,3-d]pyrimidine-2,4-diamine] |  | 1 to 2 nM
29 | CCNc1nc(Nc2cn(C(C)(C)C#N)nc2C)nc2[nH]cc(Cl)c12 [Compound B-2, 2-[4-[[5-chloro-4-(ethylamino)-7H-pyrrolo[2,3-d]pyrimidin-2-yl]amino]-3-methyl-pyrazol-1-yl]-2-methyl-propanenitrile] |  | ≤ 1 nM
